This is an account of results in publication PMC12069643, “Structural insights into the selective recognition of RF-amide peptides by neuropeptide FF receptor 2” (EMBO Reports, 2025).

The target in one assay is T1, human NPFFR2 (Homo sapiens, UniProt Q9Y5X5).
T1 construct: expressed in transfected cells; host or cells: HEK293T (pcDNA3.1 NPFFR2)
Put plainly: GloSensor forskolin-stimulated cAMP assay, NPFFR2 wild-type. The class given is cell-based. To be noted: NPFFR2 wild-type (100% DNA treated for hNPSF), HEK293T, 0.5 μM forskolin; for Emax: HEK-293T, mean of three independent experiments ± SEM; for EC50: three independent experiments. The protocol:
Figure 1 Structural analysis and downstream signaling of NPFFR2. (A) The concentration-dependent response of various agonists on NPFFR2 is measured using a forskolin-stimulated cAMP assay. Data points represent mean values from three independent experiments (each with technical triplicate), with error bars indicating SEM (standard error of the mean). Raw data were normalized to the vehicle-treated (0%) and 0.5 μM forskolin-treated (100%) responses. […] (C) The extracellular loop 2 (ECL2, pink) and N-terminus (Nt, blue) of NPFFR2 are depicted using a cartoon model. […] Source data are available online for this figure.
(§1) HEK293T cells were seeded at a density of 6 × 10^5 cells per well in a six-well cell culture plate (SPL) and co-transfected with expression plasmids encoding GloSensor™ and each NPFFR construct, using 1 µg to 4 µg of DNA per well according to the Lipofectamine™ 2000 Transfection Reagent (Invitrogen) protocol. After 48 h of incubation under standard conditions (37 °C, 5% CO2), the cells were detached using Accutase solution (Sigma-Aldrich) and washed with PBS. The cells were then pelleted by centrifugation, resuspended in CO2-independent medium (Gibco) supplemented with Firefly D-Luciferin (0.5 mg/ml, NanoLight), and distributed into a 96-well white plate (SPL). After a 2-hour incubation, serially diluted ligands and 0.5 μM forskolin were added to each well to detect ligand-induced signaling. Luminescence signals were measured using a Mithras LB940 instrument (Berthold) with a measurement time of 1 s per well.
(§2) Data from the GloSensor^TM cAMP signaling assays were analyzed using GraphPad Prism with a three-parameter logistic model to fit concentration-response curves for both wild-type (WT) and mutant receptors. Mutant expression levels and DNA amounts were adjusted to match WT conditions. ΔpEC50 values were calculated by subtracting the log EC50 of the WT receptor from that of each mutant. Results are presented as mean ± SEM from three independent biological replicates, each performed in duplicate or more. Error bars represent the SEM. Statistical significance was assessed using one-way ANOVA, followed by Dunnett’s tests comparisons to the WT receptor. Significance levels were reported as follows: ns (not significant, P > 0.05); *P < 0.05; **P < 0.01; ***P < 0.001.

Another assay has as its target T2, human NPFFR1 (Homo sapiens, UniProt Q9GZQ6).
T2 construct: expressed in transfected cells; host or cells: HEK293T (pcDNA3.1 NPFFR1)
Nature of the assay: GloSensor forskolin-stimulated cAMP assay, NPFFR1 wild-type. The format is cell-based. To be noted: for Emax: HEK-293T, read-out: Emax ± SEM. The protocol:
Figure 4 RF-amide ligand selectivity of NPFFR2 and NPFFR1. […] Key residues at the fifth and sixth positions from the C-terminus, are highlighted in bold. […] (B) The concentration-dependent response of various agonists on NPFFR1 was measured using a forskolin-stimulated cAMP assay. Data points represent the mean values from three independent experiments (each with technical triplicate), with error bars indicating SEM. Raw data were normalized to the vehicle-treated (0%) and 0.5 μM forskolin-treated (100%) responses. (C) Structural comparison between the binding modes of hNPSF to NPFFR2 and GnIH to NPFFR1. An AlphaFold2 prediction model of the GnIH–NPFFR1 complex was generated using the hNPSF–NPFFR2 complex structure as a template. The hydrophobicity of NPFFRs is shown with surface representation, where purple indicates hydrophilic regions and bronze indicates hydrophobic regions. […] (D) The cAMP response to the ligands hNPSF and GnIH was measured for both wild-type NPFFR1 and a mutant form of NPFFR1 using a forskolin-stimulated cAMP assay. […] Symbols represent mean values from three independent experiments, each conducted in technical triplicates, with error bars indicating SEM. Responses were normalized to vehicle-treated controls (0%) and 0.5 μM forskolin-treated controls (100%). Source data are available online for this figure.
as §1, §2

Assay [1] addresses NPFFR1 mutant (Q37^NtL, I293^6.58S, and T307^7.31N) (UniProt Q9GZQ6).
Assay [2] has as its target T3, NPFFR1-chimera (Q37^NtL/I293^6.58S/T307^7.31N) (Homo sapiens, UniProt Q9GZQ6, I293S/Q37L/T307N).
T3 construct: expressed in transfected cells; host or cells: HEK293T
Put plainly: GloSensor forskolin-stimulated cAMP assay, NPFFR1 triple mutant (chimera Q37NtL/I2936.58S/T3077.31N). The format is cell-based. The note with it: HEK293T, 0.5 μM forskolin, three independent experiments. The protocol:
Figure 4 RF-amide ligand selectivity of NPFFR2 and NPFFR1. (A) Sequence alignment between human NPFFs and RFRPs, the endogenous ligands of NPFFRs, which share PXRF-NH2 motif at their C-terminus (shown in green letters). Key residues at the fifth and sixth positions from the C-terminus, are highlighted in bold. […] (B) The concentration-dependent response of various agonists on NPFFR1 was measured using a forskolin-stimulated cAMP assay. Data points represent the mean values from three independent experiments (each with technical triplicate), with error bars indicating SEM. Raw data were normalized to the vehicle-treated (0%) and 0.5 μM forskolin-treated (100%) responses. (C) Structural comparison between the binding modes of hNPSF to NPFFR2 and GnIH to NPFFR1. An AlphaFold2 prediction model of the GnIH–NPFFR1 complex was generated using the hNPSF–NPFFR2 complex structure as a template. The hydrophobicity of NPFFRs is shown with surface representation, where purple indicates hydrophilic regions and bronze indicates hydrophobic regions. […] (D) The cAMP response to the ligands hNPSF and GnIH was measured for both wild-type NPFFR1 and a mutant form of NPFFR1 using a forskolin-stimulated cAMP assay. […] Symbols represent mean values from three independent experiments, each conducted in technical triplicates, with error bars indicating SEM. Responses were normalized to vehicle-treated controls (0%) and 0.5 μM forskolin-treated controls (100%). Source data are available online for this figure.
To further validate whether these specific residues in NPFFR1 affect ligand selectivity, we generated a triple mutant of NPFFR1, in which residues Q37^Nt, I293^6.58, and T307^7.31 of NPFFR1 were replaced by the corresponding NPFFR2 residues, Leu, Ser, and Asn, respectively (Appendix Fig. S10). […]
HEK293T cells were seeded at a density of 6 × 10^5 cells per well in a six-well cell culture plate (SPL) and co-transfected with expression plasmids encoding GloSensor™ and each NPFFR construct, using 1 µg to 4 µg of DNA per well according to the Lipofectamine™ 2000 Transfection Reagent (Invitrogen) protocol. […] Luminescence signals were measured using a Mithras LB940 instrument (Berthold) with a measurement time of 1 s per well.
Data from the GloSensor^TM cAMP signaling assays were analyzed using GraphPad Prism with a three-parameter logistic model to fit concentration-response curves for both wild-type (WT) and mutant receptors. Mutant expression levels and DNA amounts were adjusted to match WT conditions. ΔpEC50 values were calculated by subtracting the log EC50 of the WT receptor from that of each mutant. […] Statistical significance was assessed using one-way ANOVA, followed by Dunnett’s tests comparisons to the WT receptor. […]

The target in assay [3] is T4, human Neuropeptide FF Receptor 2 (8-420) (human, UniProt Q9Y5X5-2 8-420).
T4 construct: human NPFFR2, residues 8-420; GFP tag cut off with HRV3C protease while the complex was assembled; the 8xHis tag follows GFP; In the final model the N-terminal 24 residues and the residues beyond 348 are missing; also called NPFFR2; NPFF receptor 2; source: Sf9, purified (Ni-NTA; in LMNG/CHS); not shown: FLAG, N-terminal, kept; GFP, C-terminal, cleaved; His8, C-terminal, cleaved
Put plainly: cryo-EM structure; purified NPFFR2, Gi heterotrimer and scFv16 mixed 1:1.5:2 with 0.01 mM hNPSF, HRV3C protease and apyrase, overnight at 4 °C; M1 anti-FLAG column and SEC in 20 mM Tris-Cl pH 8.0, 150 mM NaCl, LMNG/CHS, 100 nM hNPSF; global resolution 3.2 Å. The note with it: both partners purified.

Assay [4] deals with NPFFR1 mutant (Q37^NtL, I293^6.58S, and T307^7.31N) (UniProt Q9GZQ6 1-430, Q37^NtL | I293^6.58S | T307^7.31N). Put plainly: cell-based or functional assay.

Where two headings read alike, the source gives them in different places. Ends that are not written are not given here.

T2 sequence (Q9GZQ6 whole entry): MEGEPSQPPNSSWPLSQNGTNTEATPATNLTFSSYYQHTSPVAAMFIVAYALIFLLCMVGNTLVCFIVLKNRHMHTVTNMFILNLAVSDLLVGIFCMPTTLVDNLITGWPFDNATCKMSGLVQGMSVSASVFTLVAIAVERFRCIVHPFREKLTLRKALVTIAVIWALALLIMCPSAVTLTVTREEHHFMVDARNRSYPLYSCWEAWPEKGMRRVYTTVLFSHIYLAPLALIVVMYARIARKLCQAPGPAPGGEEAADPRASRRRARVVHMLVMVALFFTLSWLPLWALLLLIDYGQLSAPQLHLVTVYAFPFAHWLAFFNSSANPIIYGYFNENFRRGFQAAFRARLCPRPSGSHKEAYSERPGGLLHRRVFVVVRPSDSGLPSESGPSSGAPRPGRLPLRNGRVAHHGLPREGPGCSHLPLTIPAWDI
T1 sequence (Q9Y5X5 103-522): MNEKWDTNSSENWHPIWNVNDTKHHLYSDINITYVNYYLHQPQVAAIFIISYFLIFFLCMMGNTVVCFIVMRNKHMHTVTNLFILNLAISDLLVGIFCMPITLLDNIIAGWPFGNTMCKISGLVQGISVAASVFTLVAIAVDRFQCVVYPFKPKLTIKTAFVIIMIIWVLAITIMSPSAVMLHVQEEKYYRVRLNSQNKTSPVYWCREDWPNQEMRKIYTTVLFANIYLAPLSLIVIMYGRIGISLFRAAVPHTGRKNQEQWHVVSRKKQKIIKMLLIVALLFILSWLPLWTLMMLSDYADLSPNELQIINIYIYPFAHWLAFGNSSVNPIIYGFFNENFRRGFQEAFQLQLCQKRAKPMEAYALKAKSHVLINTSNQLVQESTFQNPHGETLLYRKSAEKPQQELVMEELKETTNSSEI
T3 sequence (Q9GZQ6 whole entry Q37L/I293S/T307N): as the sequence (Q9GZQ6 whole entry) above, with Q37L, I293S, T307N counted along it
T4 sequence (Q9Y5X5 110-522): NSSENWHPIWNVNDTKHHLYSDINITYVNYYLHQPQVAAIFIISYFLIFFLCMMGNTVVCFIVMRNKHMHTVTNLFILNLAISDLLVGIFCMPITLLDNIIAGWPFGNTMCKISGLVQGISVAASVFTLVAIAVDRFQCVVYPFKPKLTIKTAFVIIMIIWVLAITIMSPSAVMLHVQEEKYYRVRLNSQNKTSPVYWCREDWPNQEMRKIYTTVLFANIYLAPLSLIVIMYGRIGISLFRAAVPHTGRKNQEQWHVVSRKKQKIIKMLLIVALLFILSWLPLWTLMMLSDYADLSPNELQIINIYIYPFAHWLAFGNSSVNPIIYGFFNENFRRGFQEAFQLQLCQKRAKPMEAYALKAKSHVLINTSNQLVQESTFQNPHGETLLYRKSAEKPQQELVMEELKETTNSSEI
Sequence of NPFFR1 mutant (Q37^NtL, I293^6.58S, and T307^7.31N) (UniProt Q9GZQ6) (Q9GZQ6 other isoform, or with tags, fused parts or gaps mutant): as the sequence (Q9GZQ6 whole entry) above, with Q37L, I293S, T307N counted along it
Sequence of NPFFR1 mutant (Q37^NtL, I293^6.58S, and T307^7.31N) (UniProt Q9GZQ6 1-430, Q37^NtL | I293^6.58S | T307^7.31N) (Q9GZQ6 other isoform, or with tags, fused parts or gaps with the stated changes): as the sequence (Q9GZQ6 whole entry) above, with Q37L, I293S, T307N counted along it

At human NPFFR2, `CC(C)C[C@H](NC(=O)[C@H](CC(N)=O)NC(=O)[C@@H]1CCCN1C(=O)[C@@H](N)C(C)C)C(=O)N1CCC[C@H]1C(=O)N[C@@H](CCC(N)=O)C(=O)N[C@@H](CCCNC(=N)N)C(=O)N[C@@H](Cc1ccccc1)C(N)=O` [NPVF] had a maximum response (Emax) of 78 ± 3% and an EC50 of 631 nM.
For the molecule AGEGLNSQFWSLAAPQRF-NH2 [NPAF], at human NPFFR1, the EC50 is 200 nM and the maximal effect (Emax) came to 83 ± 3%. At human NPFFR2, this molecule had a maximal effect (Emax) of 80 ± 2% and an EC50 of 6.31 nM.
As to GnIH/RFRP-3 (peptide), in assay [1], the fold decrease in forskolin-stimulated cAMP assay (GloSensor, HEK293T): response to GnIH, against wild-type NPFFR1 was 30 fold.
“MPHSFANLPLRF-NH2 [GnIH] [listing 1 of 2 here]”: the Emax in assay [2] (HEK-293T) was found to be 80 ± 2%; on human NPFFR1 (NPFFR1 wild-type, HEK293T, 0.5 μM forskolin, three independent experiments), 80 ± 3%; at human NPFFR2 it was 81 ± 2%.
With “MPHSFANLPLRF-NH2 [GnIH] [listing 2 of 2 here]”, the EC50 was 100 nM in assay [2]; 3.16 nM at human NPFFR1 (NPFFR1 wild-type, HEK293T, 0.5 μM forskolin, three independent experiments, read-out: pEC50 ± SEM (converted)); 158 nM on human NPFFR2.

B1: human NPSF (SQAFLFQPQRF-NH2) (peptide)
peptide: SQAFLFQPQRF-NH2
notes: human form of NPSF (SQA-NPFF), an RF-amide peptide of the NPFF series; also called hNPSF; SQA-NPFF; source: synthetic peptide; bought: Cusabio (custom order)
In the case of B1, the binding result in assay [3] was “binds”. The “forskolin-stimulated cAMP assay (GloSensor, HEK293T): response to hNPSF, against wild-type NPFFR1” value in assay [4] was approximately 2 fold.
